Results as given in patent publication US12702648B2 (priority 2023, dated 2026).
Converted amounts (≈) assume the structure as drawn.

Columns and labels:
Assay type in all cases: cell-based
[1] = test system: human kidney 293T cells; test: In vitro cytotoxicity test (MTS), 293T; conditions: 72 h incubation, AmB concentration
Experimental: (§1) In vitro cytotoxicity test: The cytotoxicity of TDs and AmB loaded nanoparticles (NPs) were studied using murine macrophage-like RAW 264.7 cells and human kidney 293T cells via MTS assays. Briefly, cells were seeded in 96-well plates at a density of 6×10^3 (RAW 264.7) and 3×10^3 (293T) cells per well and incubated overnight (Dulbecco's modified Eagle's medium (DMEM) medium, 5% CO2, 37° C.). TDs or AmB nanoformulations with different concentrations were added into each well to treat the cells. After 72 h incubation, CellTiter 96 AQueous MTS reagent was added to each well according to the manufacturer's instructions. The cell viability was determined by measuring the absorbance at 490 nm using a microplate reader (BioTek Synergy H1) with the untreated cells as negative controls. Results were obtained as the average cell viability of triplicate experiments calculated by a formula of [(ODtreat−ODblank)/(ODcontrol−ODblank)×100%]. Statistical analysis: Statistical analysis was carried out using GraphPad Prism (GraphPad Software, California, USA). One-way analyses of variance (ANOVA) was used for two-group and multiple-group analyses. […] The half maximal inhibitory concentration (IC50) was calculated by nonlinear regression analysis ([Inhibitor] vs. response—Variable slope (four parameters)). The half-life was determined by nonlinear regression analysis (one-phase association).

[2] = test system: murine macrophage-like RAW 264.7 cells; test: In vitro cytotoxicity test (MTS), RAW 264.7; conditions: 72 h incubation, AmB concentration
Experimental: as §1

[3] = test system: C. albicans (ATCC 10231); test: In vitro antifungal activity (MIC, dilution method); conditions: 5×10^6 cells/mL, 24 h at 25° C.
Experimental: In vitro antifungal activity: In order to study the influence of encapsulation of AmB in TDs on the antifungal activity of the drug, the minimal inhibitory concentration (MIC), defined as the lowest concentration inhibiting clearly visible growth of the fungi, was determined by dilution method. The antifungal agents were tested at AmB final concentration range of 0.0125-5 μg/mL. The testing was performed in 96-well plates. Cell suspensions of C. albicans were prepared in Sabouraud's broth and adjusted to a final concentration of 5×10^6 cells/mL (fungal count determined by microscopic counts on a hemocytometer). The 96-well plate was incubated for 24 h at 25° C. and record the lowest concentration of AmB that prevented visible growth of C. albicans.

C[C@@H]1[C@H](O)[C@@H](C)/C=C/C=C/C=C/C=C/C=C/C=C/C=C/[C@H](O[C@@H]2O[C@H](C)[C@@H](O)[C@H](N)[C@@H]2O)C[C@@H]2O[C@](O)(C[C@@H](O)C[C@@H](O)[C@H](O)CC[C@@H](O)C[C@@H](O)CC(=O)O[C@H]1C)C[C@H](O)[C@H]2C(=O)O [free AmB, Amphotericin B]
IC50 (cytotoxicity) to 293T [1]: 4.3 µg/mL
IC50 (cytotoxicity) to RAW 264.7 [2]: 1.8 µg/mL
MIC (minimum inhibitory concentration) [3]: 0.05 µg/mL (≈ 0.0541 µM)
